Experiment: Solubility test of xylose in solvent systems suitable as organosolv treatment liquid
Assay type: physicochemical
Settings: 20° C., stirred 24 h, based on total weight of the xylose added
Description: The solubility of xylose (>99% pure, VWR) in different solvent systems, that are suitable to be used as treatment liquid during organosolv, is tested. Xylose was used as representative of all monomeric sugars, as it is the most abundant carbohydrate found in hemicellulose present in hardwoods and herbaceous biomass and thus in corresponding organosolv liquors. The indicated amount of xylose was added to each solvent system at 20° C. and the suspension was mechanically stirred for 24 h. Hereafter, the saturated solution containing remaining xylose was allowed to settle for 3 h and the liquid was removed. The residue was dried and the amount of undissolved xylose was determined.

xylose not dissolved (acetone (100%), 2.7 wt % xylose added): 99.1 wt % | xylose not dissolved (ethanol (100%), 2.5 wt % xylose added): 82.2 wt % | xylose not dissolved (water/acetone 1.9/98.1 (w/w), 2.7 wt % xylose added): 99.1 wt % | xylose not dissolved (water/acetone 4.9/95.1 (w/w), 2.7 wt % xylose added): 93.0 wt % | xylose not dissolved (water/acetone 8.4/91.6 (w/w), 2.0 wt % xylose added): 79.1 wt % | xylose not dissolved (water/acetone 9.9/90.1 (w/w), 2.3 wt % xylose added): 80.2 wt % | xylose not dissolved (water/ethanol 4.3/95.7 (w/w), 2.2 wt % xylose added): 49.7 wt % | xylose not dissolved (water/ethanol 4.7/95.3 (w/w), 2.3 wt % xylose added): 46.2 wt % | xylose not dissolved (water/ethanol 7.8/92.2 (w/w), 2.3 wt % xylose added): 16.6 wt % | xylose not dissolved (water/ethanol 9.7/90.3 (w/w), 2.3 wt % xylose added): 0.0 wt %
Compound: O=C[C@H](O)[C@@H](O)[C@H](O)CO [xylose]

Source: US10793927B2, “Separation of lignin and sugars from biomass pre-treatment liquors” (Stichting Energieonderzoek Centrum Nederland, priority 2015, dated 2020)
